Results on 28 compounds are retold here after patent US11014895B2, “Heterocyclic urea compound, and drug composition and application thereof” (CHINA PHARMACEUTICAL UNIVERSITY, priority 2017, dated 2021).

One assay addresses IDO1 enzyme (Homo sapiens, UniProt P14902). The assay is described as follows: Determination of biochemical activity of IDO1 enzyme (absorbance at 320 nm). Particulars: room temperature, 3 hours. In short, it runs like this:
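Absorbance at 320 nm was measured after a 3-hour room-temperature reaction of enzyme with compound. Phosphate buffer at pH 7-8 was used; inhibition was derived from the absorption ratio and fitted to IC50.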

Assay [1] addresses T1, IDO1 enzyme in the Hela cell (Homo sapiens, UniProt P14902).
T1 construct: endogenous in cells; host or cells: HeLa cells stimulated with interferon γ (100 ng/ml)
Description: Cell activity: interferon γ-stimulated Hela cells, absorbance of supernatant at 480 nm. The format is cell-based. Particulars: interferon γ 100 ng/ml, 72 hours. In short, it runs like this:
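Kynurenine-type readout: supernatant from IFN-γ-stimulated (100 ng/ml final) HeLa cells, 72 h with compound, was acid-hydrolysed with trichloroacetic acid (50 °C, 30 min). After centrifugation, 2% dimethylaminobenzaldehyde/acetic acid added and absorbance measured at 480 nm.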

Sequence of IDO1 enzyme (P14902 whole entry): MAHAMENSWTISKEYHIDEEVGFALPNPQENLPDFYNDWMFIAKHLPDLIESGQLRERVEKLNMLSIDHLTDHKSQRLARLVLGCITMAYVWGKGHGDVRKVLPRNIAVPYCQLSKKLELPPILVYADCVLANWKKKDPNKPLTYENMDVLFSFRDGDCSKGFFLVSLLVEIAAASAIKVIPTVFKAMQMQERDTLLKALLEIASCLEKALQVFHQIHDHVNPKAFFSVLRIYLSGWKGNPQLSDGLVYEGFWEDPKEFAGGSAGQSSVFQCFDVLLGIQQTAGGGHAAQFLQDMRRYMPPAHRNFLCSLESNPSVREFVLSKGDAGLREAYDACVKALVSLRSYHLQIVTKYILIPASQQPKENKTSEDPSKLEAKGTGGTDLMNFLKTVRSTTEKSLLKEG
T1 sequence (P14902 whole entry): as above

As for `O/N=C(\Nc1ccc(F)c(Br)c1)c1nonc1NC(=S)NC1CC1` [Embodiment 125, (Z)-1-(4-(N-(3-bromo-4-fluorophenyl)-N′-hydroxyaminoiminomethyl)-1,2,5-oxadiazole-3-substituted)-3-(cyclopropyl)thiourea], the IC50 (at IDO1 enzyme; in assay [1]) was more than 1 µM each time.
With `NC1CCC(NC(=S)Nc2nonc2/C(=N/O)Nc2ccc(F)c(Br)c2)CC1` (centres unmarked) [Embodiment 126, (Z)-1-(4-(N-(3-bromo-4-fluorophenyl)-N′-hydroxyaminoiminomethyl)-1,2,5-oxadiazole-3-substituted)-3-(4-aminocyclohexyl)thiourea], the IC50 (against IDO1 enzyme; in assay [1]) was 0.1 to 1 µM each time.
For the compound `OCCCNC(=S)Nc1nonc1/C(=N/O)Nc1ccc(F)c(Br)c1` [Embodiment 127, (Z)-1-(4-(N-(3-bromo-4-fluorophenyl)-N′-hydroxyaminoiminomethyl)-1,2,5-oxadiazole-3-substituted)-3-(3-hydroxypropyl)thiourea], the IC50 (against IDO1 enzyme; in assay [1]) was less than 0.001 µM throughout.
Take `OCCNC(=S)Nc1nonc1/C(=N/O)Nc1ccc(F)c(Br)c1` [Embodiment 128, (Z)-1-(4-(N-(3-bromo-4-fluorophenyl)-N′-hydroxyaminoiminomethyl)-1,2,5-oxadiazole-3-substituted)-3-(2-hydroxyethyl)thiourea]: the IC50 (at IDO1 enzyme; in assay [1]) was less than 0.001 µM in each case.
Consider `NCCNC(=S)Nc1nonc1/C(=N/O)Nc1ccc(F)c(Br)c1` [Embodiment 129, (Z)-1-(4-(N-(3-bromo-4-fluorophenyl)-N′-hydroxyaminoiminomethyl)-1,2,5-oxadiazole-3-substituted)-3-(2-aminoethyl)thiourea], for which the IC50 (against IDO1 enzyme; in assay [1]) was 0.1 to 1 µM in each case.
As for `COc1ccc(NC(=S)Nc2conc2/C(=N/O)Nc2ccc(F)c(Cl)c2)cc1` [Embodiment 130, (Z)-1-(4-(N-(3-chloro-4-fluorophenyl)-N′-hydroxyaminoiminomethyl)-isoxazole-3-substituted)-4-(4-methoxyphenyl)thiourea], the IC50 (against IDO1 enzyme; in assay [1]) was 0.1 to 1 µM each time.
For the compound `O/N=C(\Nc1ccc(F)c(Cl)c1)c1nocc1NC(=S)Nc1ccccc1` [Embodiment 131, (Z)-1-(4-(N-(3-chloro-4-fluorophenyl)-N′-hydroxyaminoiminomethyl)-isoxazole-3-substituted)-4-(phenyl)thiourea], the IC50 (at IDO1 enzyme; in assay [1]) was 0.1 to 1 µM in each case.
On to `COc1ccc(NC(=S)Nc2nocc2/C(=N/O)Nc2ccc(F)c(Br)c2)cc1` [Embodiment 133, (Z)-1-(4-(N-(3-bromo-4-fluorophenyl)-N′-hydroxyaminoiminomethyl)-isoxazole-3-substituted)-3-(4-methoxyphenyl)thiourea], for which the IC50 (against IDO1 enzyme; in assay [1]) was 0.1 to 1 µM in each case.
Take `O/N=C(\Nc1ccc(F)c(Br)c1)c1conc1NC(=S)Nc1ccccc1` [Embodiment 134, (Z)-1-(4-(N-(3-bromo-4-fluorophenyl)-N′-hydroxyaminoiminomethyl)-isoxazole-3-substituted)-3-(phenyl)thiourea]: the IC50 (at IDO1 enzyme; in assay [1]) was 0.1 to 1 µM throughout.
In the case of `O/N=C(\Nc1ccc(F)c(Br)c1)c1conc1NC(=S)NC1CCCCC1` [Embodiment 135, (Z)-1-(4-(N-(3-bromo-4-fluorophenyl)-N′-hydroxyaminoiminomethyl)-isoxazole-3-substituted)-3-(cyclohexyl)thiourea], the IC50 (against IDO1 enzyme; in assay [1]) was 0.1 to 1 µM in each case.
Turning to `COc1ccc(NC(=S)Nc2cocc2/C(=N/O)Nc2ccc(F)c(Br)c2)cc1` [Embodiment 136, (Z)-1-(4-(N-(3-bromo-4-fluorophenyl)-N′-hydroxyaminoiminomethyl)-furan-3-substituted)-3-(4-methoxyphenyl)thiourea], the IC50 (on IDO1 enzyme; in assay [1]) was more than 1 µM in each case.
Regarding `O/N=C(\Nc1ccc(F)c(Br)c1)c1cocc1NC(=S)Nc1ccccc1` [Embodiment 137, (Z)-1-(4-(N-(3-bromo-4-fluorophenyl)-N′-hydroxyaminoiminomethyl)-furan-3-substituted)-3-phenylthiourea], the IC50 (at IDO1 enzyme; in assay [1]) was 0.1 to 1 µM in each case.
For `O/N=C(\Nc1ccc(F)c(Br)c1)c1cocc1NC(=S)NC1CCCCC1` [Embodiment 138, (Z)-1-(4-(N-(3-bromo-4-fluorophenyl)-N′-hydroxyaminoiminomethyl)-furan-3-substituted)-3-cyclohexylthiourea], the IC50 (against IDO1 enzyme; in assay [1]) was 0.1 to 1 µM throughout.
With `COc1ccc(NC(=N)Nc2nonc2/C(=N/O)Nc2ccc(F)c(Br)c2)cc1` [Embodiment 139, (Z)-1-(4-(N-(3-bromo-4-fluorophenyl)-N′-hydroxyaminoiminomethyl)-1,2,5-oxadiazole-3-substituted)-3-(4-methoxyphenyl)guanidine], the IC50 (against IDO1 enzyme; in assay [1]) was less than 0.001 µM in each case.
For the compound `N=C(Nc1ccccc1)Nc1nonc1/C(=N/O)Nc1ccc(F)c(Br)c1` [Embodiment 140, (Z)-1-(4-(N-(3-bromo-4-fluorophenyl)-N′-hydroxyaminoiminomethyl)-1,2,5-oxadiazole-3-substituted)-3-phenylguanidine], the IC50 (on IDO1 enzyme; in assay [1]) was 0.1 to 1 µM each time.
In the case of `N=C(Nc1ccc(O)cc1)Nc1nonc1/C(=N/O)Nc1ccc(F)c(Br)c1` [Embodiment 141, (Z)-1-(4-(N-(3-bromo-4-fluorophenyl)-N′-hydroxyaminoiminomethyl)-1,2,5-oxadiazole-3-substituted)-3-(4-hydroxyphenyl)guanidine], the IC50 (against IDO1 enzyme; in assay [1]) was less than 0.001 µM throughout.
With `N=C(Nc1ccc(N)cc1)Nc1nonc1/C(=N/O)Nc1ccc(F)c(Br)c1` [Embodiment 142, (Z)-1-(4-(N-(3-bromo-4-fluorophenyl)-N′-hydroxyaminoiminomethyl)-1,2,5-oxadiazole-3-substituted)-3-(4-aminophenyl)guanidine], the IC50 (at IDO1 enzyme; in assay [1]) was less than 0.001 µM in each case.
Turning to `N=C(Nc1ccc(C(F)(F)F)cc1)Nc1nonc1/C(=N/O)Nc1ccc(F)c(Br)c1` [Embodiment 143, (Z)-1-(4-(N-(3-bromo-4-fluorophenyl)-N′-hydroxyaminoiminomethyl)-1,2,5-oxadiazole-3-substituted)-3-(4-trifluorophenyl)guanidine], the IC50 (against IDO1 enzyme; in assay [1]) was more than 1 µM each time.
`COc1ccc(NC(=N)Nc2nonc2/C(=N/O)Nc2ccc(F)c(Br)c2)c(F)c1` [Embodiment 144]: the IC50 (against IDO1 enzyme; in assay [1]) was 0.1 to 1 µM each time.
For `N=C(Nc1nonc1/C(=N/O)Nc1ccc(F)c(Br)c1)NC1CCCCC1` [Embodiment 145, (Z)-1-(4-(N-(3-bromo-4-fluorophenyl)-N′-hydroxyaminoiminomethyl)-1,2,5-oxadiazole-3-substituted)-3-cyclohexylguanidine], the IC50 (on IDO1 enzyme; in assay [1]) was less than 0.001 µM in each case.
As to `N=C(Nc1nonc1/C(=N/O)Nc1ccc(F)c(Br)c1)NC1CCCC1` [Embodiment 146, (Z)-1-(4-(N-(3-bromo-4-fluorophenyl)-N′-hydroxyaminoiminomethyl)-1,2,5-oxadiazole-3-substituted)-3-cyclopentylguanidine], the IC50 (against IDO1 enzyme; in assay [1]) was more than 1 µM throughout.
Turning to `N=C(Nc1nonc1/C(=N/O)Nc1ccc(F)c(Br)c1)NC1CCC(O)CC1` (centres unmarked) [Embodiment 147, (Z)-1-(4-(N-(3-bromo-4-fluorophenyl)-N′-hydroxyaminoiminomethyl)-1,2,5-oxadiazole-3-substituted)-3-(4-hydroxycyclohexyl)guanidine], the IC50 (against IDO1 enzyme; in assay [1]) was less than 0.001 µM in each case.
As for `N=C(Nc1nonc1/C(=N/O)Nc1ccc(F)c(Br)c1)NC1CCNCC1` [Embodiment 148, (Z)-1-(4-(N-(3-bromo-4-fluorophenyl)-N′-hydroxyaminoiminomethyl)-1,2,5-oxadiazole-3-substituted)-3-(piperidine-4-substituted)guanidine], the IC50 (at IDO1 enzyme; in assay [1]) was less than 0.001 µM each time.
In the case of `N=C(Nc1nonc1/C(=N/O)Nc1ccc(F)c(Br)c1)NC1CC1` [Embodiment 149, (Z)-1-(4-(N-(3-bromo-4-fluorophenyl)-N′-hydroxyaminoiminomethyl)-1,2,5-oxadiazole-3-substituted)-3-(cyclopropyl)guanidine], the IC50 (on IDO1 enzyme; in assay [1]) was more than 1 µM throughout.
Consider `N=C(Nc1nonc1/C(=N/O)Nc1ccc(F)c(Br)c1)NC1CCC(N)CC1` (centres unmarked) [Embodiment 150, (Z)-1-(4-(N-(3-bromo-4-fluorophenyl)-N′-hydroxyaminoiminomethyl)-1,2,5-oxadiazole-3-substituted)-3-(4-aminocyclohexyl)guanidine], for which the IC50 (against IDO1 enzyme; in assay [1]) was 0.1 to 1 µM in each case.
For the compound `N=C(NCCCO)Nc1nonc1/C(=N/O)Nc1ccc(F)c(Br)c1` [Embodiment 151, (Z)-1-(4-(N-(3-bromo-4-fluorophenyl)-N′-hydroxyaminoiminomethyl)-1,2,5-oxadiazole-3-substituted)-3-(3-hydroxypropyl)guanidine], the IC50 (on IDO1 enzyme; in assay [1]) was less than 0.001 µM in each case.
As for `N=C(NCCO)Nc1nonc1/C(=N/O)Nc1ccc(F)c(Br)c1` [Embodiment 152, (Z)-1-(4-(N-(3-bromo-4-fluorophenyl)-N′-hydroxyaminoiminomethyl)-1,2,5-oxadiazole-3-substituted)-3-(2-hydroxyethyl)guanidine], the IC50 (against IDO1 enzyme; in assay [1]) was less than 0.001 µM each time.
With `N=C(NCCN)Nc1nonc1/C(=N/O)Nc1ccc(F)c(Br)c1` [Embodiment 153], the IC50 (against IDO1 enzyme; in assay [1]) was less than 0.001 µM each time.
